The record followed here is ChEMBL document CHEMBL1201862, “PubChem BioAssay data set” (2004).

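Protocol summary: plate cells (96-well), add compound at 5 concentrations, incubate 48 h, interpolate endpoints linearly. Here, GI50 denotes the concentration required for 50% inhibition of growth.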 Calls of active or inactive are those of the source. No stated cut-off is given here; in the data, active = GI50 up to about 1.1 µM and inactive = higher.

Some test systems named below: OVCAR-3; UACC-62; IGROV-1; HOP-62; Malme-3M; SR; HT-29; OVCAR-4; SNB-19; UACC-257; 786-0; SK-MEL-28; SF-295; SN12C; HL-60; HCT-15; A549; U-251; OVCAR-5.
What all share (assay): NCI-60 cell line screen, 48 h

Turning to `COC(=O)CC1NC(=O)[C@@H]1C(C)O` (some centres not stated), the GI50 with OVCAR-3, in the test on UACC-62, in the test with IGROV-1, in the test on HOP-62, with Malme-3M and in the test on SR was > 100 µM (inactive) each time. In addition, the GI50 with HT-29, with OVCAR-4, in the test with SNB-19, in the test with UACC-257, with 786-0 and in the test on SK-MEL-28 was > 100 µM (inactive) in each case. For the same compound, the GI50 was > 100 µM (inactive) with SF-295; > 100 µM (inactive) in the test on SN12C; > 100 µM (inactive) in the test with HL-60; over 100 µM in the test on HCT-15; > 100 µM (inactive) in the test with A549; > 100 µM (inactive) in the test on U-251.
For `CCC(O)(c1ccc(OC)cc1)C(c1ccc(OCc2ccccc2)cc1)c1ccc(OCc2ccccc2)cc1` (configuration not stated), the GI50 with OVCAR-5, in the test with OVCAR-3, in the test on UACC-62, in the test with IGROV-1, in the test on HOP-62 and in the test with Malme-3M was > 100 µM (inactive) throughout. Also, the GI50 with SR, in the test on HT-29, with OVCAR-4, with SNB-19, in the test on UACC-257 and with 786-0 was > 100 µM (inactive) each time. The GI50 in the test on SK-MEL-28 is > 100 µM (inactive); in the test on SF-295 it was > 100 µM (inactive); in the test with SN12C it was 99.5 µM (inactive); with HL-60, > 100 µM (inactive); in the test on HCT-15, over 100 µM; in the test on A549 it was > 100 µM (inactive). Moreover, in the test with U-251, the GI50 is > 100 µM (inactive).
For `Brc1c2nc3ccccc3nc2n2ccc3ccccc3c12`, the GI50 in the test on OVCAR-5 was > 100 µM (inactive); in the test on OVCAR-3, > 100 µM (inactive); in the test with UACC-62 it was > 100 µM (inactive); in the test on IGROV-1, 47.6 µM (inactive); in the test on HOP-62, > 100 µM (inactive); in the test with Malme-3M, > 100 µM (inactive). In addition, the GI50 with SR, with OVCAR-4, in the test with SNB-19, in the test with UACC-257, in the test with 786-0 and in the test with SK-MEL-28 was > 100 µM (inactive) each time. Moreover, the GI50 is > 100 µM (inactive) in the test on SN12C; > 100 µM (inactive) in the test on HL-60; over 100 µM in the test on HCT-15; > 100 µM (inactive) in the test on A549; > 100 µM (inactive) with U-251.
As to `CC1=Nc2c(ccc3c2C(=O)c2ccccc2C3=O)NC(c2ccncc2)C1` (configuration not stated), the GI50 in the test on OVCAR-5 is 95.1 µM (inactive); in the test on OVCAR-3, > 10 µM (inactive); with UACC-62, 62.4 µM (inactive); in the test with IGROV-1, 4.94 µM (inactive); in the test with HOP-62, 35.1 µM (inactive); in the test with Malme-3M, > 10 µM (inactive). The GI50 with SR is 0.135 µM (active); in the test on HT-29, > 10 µM (inactive); with OVCAR-4 it was > 10 µM (inactive); with SNB-19, > 10 µM (inactive); in the test on UACC-257, > 10 µM (inactive); in the test with 786-0, > 10 µM (inactive). Moreover, the GI50 is > 10 µM (inactive) with SK-MEL-28; > 10 µM (inactive) with SF-295; 57.4 µM (inactive) in the test on SN12C; 0.798 µM (active) with HL-60; 9.93 µM in the test on HCT-15; 13.3 µM (inactive) in the test on A549. Further, in the test on U-251, the GI50 was > 10 µM (inactive).
Consider `COC(=O)c1nn(C(=N)c2ccc(Cl)cc2)c2c1CCC2`, for which the GI50 with OVCAR-5 was > 100 µM (inactive); with UACC-62 it was > 100 µM (inactive); with IGROV-1, > 100 µM (inactive); with HOP-62, > 100 µM (inactive); with Malme-3M, > 100 µM (inactive); in the test with SR, 14.7 µM (inactive). Further, the GI50 with HT-29, in the test with OVCAR-4, with SNB-19, with UACC-257, with 786-0 and with SK-MEL-28 was > 100 µM (inactive) throughout. Also, the GI50 in the test on SF-295 was > 100 µM (inactive); in the test on SN12C, > 100 µM (inactive); with HL-60, > 100 µM (inactive); in the test with HCT-15, over 100 µM; in the test on A549, > 100 µM (inactive); with U-251, > 100 µM (inactive).
For the compound `OCC(O)COc1c(Cl)cc(Cl)cc1Cl` (configuration not stated), the GI50 with OVCAR-5, with OVCAR-3, in the test with UACC-62, with IGROV-1, in the test with HOP-62 and with Malme-3M was > 100 µM (inactive) each time. In addition, the GI50 with SR was 61.7 µM (inactive); with HT-29, > 100 µM (inactive); with OVCAR-4, > 100 µM (inactive); in the test with SNB-19, > 100 µM (inactive); with UACC-257 it was > 100 µM (inactive); in the test with 786-0 it was > 47.6 µM (inactive). Moreover, the GI50 was > 100 µM (inactive) with SK-MEL-28; > 100 µM (inactive) in the test with SF-295; > 100 µM (inactive) in the test with SN12C; > 100 µM (inactive) in the test with HL-60; over 100 µM in the test on HCT-15; > 100 µM (inactive) in the test on A549. Also, the GI50 in the test with U-251 is > 100 µM (inactive).
Regarding `CN(C)C(=S)/N=c1\ss/c(=N\C(=S)N(C)C)n1-c1ccc2c(c1)OCO2`, the GI50 with OVCAR-5 was > 100 µM (inactive); in the test on OVCAR-3 it was > 100 µM (inactive); with UACC-62, 5.56 µM (inactive); in the test with IGROV-1 it was 10 µM (inactive); with HOP-62, > 100 µM (inactive); in the test with Malme-3M, > 100 µM (inactive). Further, the GI50 was > 100 µM (inactive) in the test on SR; 4.19 µM (inactive) in the test with OVCAR-4; > 100 µM (inactive) in the test on SNB-19; > 100 µM (inactive) in the test with UACC-257; > 100 µM (inactive) in the test with 786-0; > 100 µM (inactive) with SK-MEL-28. Also, the GI50 in the test on SF-295 is > 100 µM (inactive); in the test on SN12C, > 100 µM (inactive); in the test on HL-60 it was 3.27 µM (inactive); with HCT-15, over 100 µM; in the test with A549, > 100 µM (inactive); in the test on U-251, > 100 µM (inactive).
On to `COc1cc2c[n+](C)c3c4cc(OC)c(OC(C)C)cc4ccc3c2cc1OC`, for which the GI50 with OVCAR-5 was 69.7 µM (inactive); in the test on OVCAR-3, 10.5 µM (inactive); in the test on UACC-62, 37.3 µM (inactive); in the test with IGROV-1, 45.1 µM (inactive); in the test with HOP-62, > 100 µM (inactive); in the test with Malme-3M, 29.4 µM (inactive). The GI50 in the test with SR is 43.2 µM (inactive); in the test on HT-29, 49.3 µM (inactive); in the test with OVCAR-4, 62.7 µM (inactive); with SNB-19, 51.8 µM (inactive); in the test with UACC-257, 29.4 µM (inactive); in the test with 786-0, > 100 µM (inactive). Besides, the GI50 is 57.7 µM (inactive) in the test with SK-MEL-28; > 100 µM (inactive) with SF-295; 37.8 µM (inactive) in the test with SN12C; 35.2 µM (inactive) in the test on HL-60; over 100 µM with HCT-15; 77.6 µM (inactive) in the test on A549. In addition, the GI50 in the test on U-251 was 29.6 µM (inactive).
For `CC1(C)COC(c2ccc(C(F)(F)F)cc2C(O)c2ccc3ccccc3c2)=N1` (configuration not stated), the GI50 with OVCAR-5, in the test on OVCAR-3, with UACC-62, in the test with IGROV-1, with HOP-62 and in the test with Malme-3M was > 10 µM (inactive) in each case. For the same compound, the GI50 was > 10 µM (inactive) with SR; > 10 µM (inactive) in the test on HT-29; > 10 µM (inactive) with OVCAR-4; 57.8 µM (inactive) in the test on SNB-19; > 10 µM (inactive) in the test with UACC-257; > 10 µM (inactive) in the test on 786-0. Besides, the GI50 in the test on SK-MEL-28 is > 10 µM (inactive); with SF-295, 20.7 µM (inactive); in the test with SN12C it was > 10 µM (inactive); with HL-60 it was 78.3 µM (inactive); in the test on HCT-15, over 10 µM; with A549, 99.5 µM (inactive). Besides, the GI50 with U-251 was > 10 µM (inactive).
Consider `CN(c1n[n+]2c(-c3ccccc3)csc2s1)c1n[n+]2c(-c3ccccc3)csc2s1`, for which the GI50 is > 100 µM (inactive) in the test with OVCAR-5; > 100 µM (inactive) with OVCAR-3; > 100 µM (inactive) with UACC-62; > 100 µM (inactive) in the test on IGROV-1; 26.3 µM (inactive) with Malme-3M; 61.5 µM (inactive) in the test on SR. For the same compound, the GI50 with HT-29, in the test on OVCAR-4, with SNB-19, with UACC-257, in the test with 786-0 and with SK-MEL-28 was > 100 µM (inactive) throughout. For the same compound, the GI50 with SF-295 was > 100 µM (inactive); with SN12C it was > 100 µM (inactive); in the test with HL-60, 47.6 µM (inactive); in the test on HCT-15, 0.144 µM; in the test on A549, > 100 µM (inactive).
For the compound `COc1ccc(/C=C2\CCC(CCN(C)C)(C3=CCCC3)C2=O)cc1` (configuration not stated), the GI50 in the test on OVCAR-5 was 21.5 µM (inactive); with OVCAR-3 it was 19.1 µM (inactive); in the test on UACC-62, 16.4 µM (inactive); in the test with IGROV-1 it was 16.7 µM (inactive); in the test with HOP-62, 18 µM (inactive); in the test with Malme-3M, 16 µM (inactive). Further, the GI50 in the test with SR is 27.2 µM (inactive); with HT-29, 15.5 µM (inactive); in the test on OVCAR-4, 19.7 µM (inactive); in the test with SNB-19 it was 16.6 µM (inactive); with UACC-257, 16.9 µM (inactive); in the test with 786-0 it was 15.3 µM (inactive). The GI50 with SK-MEL-28 is 19 µM (inactive); with SF-295, 18.7 µM (inactive); in the test with SN12C, 19.9 µM (inactive); with HL-60, 15.9 µM (inactive); in the test with HCT-15, 22.3 µM; with A549, 19.2 µM (inactive). In addition, in the test on U-251, the GI50 is 16.5 µM (inactive).
